Laboratory results reported in US20170210751A1, “PRMT5 INHIBITORS AND USES THEREOF” (Epizyme, Inc., priority 2014, published 2017).

Experiments:
PRMT5/MEP50 = target: T1, PRMT5/MEP50 (Homo sapiens, UniProt O14744); experiment: PRMT5 Biochemical Assay (PRMT5/MEP50 enzyme assay on peptide substrate, 3H-SAM Flashplate); conditions: PRMT5/MEP50 4 nM, 3H-SAM 75 nM, peptide 40 nM, 30 min preincubation at 25 degrees Celsius
T1 construct: Flag-PRMT5; made in house; host or cells: Spodoptera frugiperda (SF9) insect cells, baculovirus (pDEST8)
Text: S-adenosylmethionine (SAM), S-adenosylhomocysteine (SAH), bicine, KCl, Tween20, dimethylsulfoxide (DMSO), bovine skin gelatin (BSG), and Tris(2-carboxyethyl)phosphine hydrochloride solution (TCEP) were purchased from Sigma-Aldrich at the highest level of purity possible. ^3H-SAM was purchase from American Radiolabeled Chemicals with a specific activity of 80 Ci/mmol. 384-well streptavidin Flashplates were purchased from PerkinElmer.
Peptide representative of human histone H4 residues 1-15 was synthesized with a C-terminal linker-affinity tag motif and a C-terminal amide cap by 21st Century Biochemicals. The peptide was high high-performance liquid chromatography (HPLC) purified to greater than 95% purity and confirmed by liquid chromatography mass spectrometry (LC-MS). The sequence was Ac-[…][K-Biot]-amide (SEQ ID NO.:3).
Full-length human PRMT5 (NM_006109.3) transcript variant 1 clone was amplified from a fetal brain cDNA library, incorporating flanking 5′ sequence encoding a FLAG tag ([…]) (SEQ ID NO.:4) fused directly to Ala 2 of PRMT5. Full-length human MEP50 (NM_024102) clone was amplified from a human testis cDNA library incorporating a 5′ sequence encoding a 6-histidine tag (MHHHHHH) (SEQ ID NO.:5) fused directly to Arg 2 of MEP50. The amplified genes were sublconed into pENTR/D/TEV (Life Technologies) and subsequently transferred by Gateway™ attL×attR recombination to pDEST8 baculvirus expression vector (Life Technologies).
Recombinant baculovirus and Baculovirus-Infected Insect Cells (BIIC) were generated according to Bac-to-Bac kit instructions (Life Technologies) and Wasilko, 2006, respectively. Protein over-expression was accomplished by infecting exponentially growing Spodoptera frugiperda (SF9) cell culture at 1.2×10^6 cell/ml with a 5000 fold dilution of BIIC stock. Infections were carried out at 27° C. for 72 hours, harvested by centrifugation, and stored at −80° C. for purification.
Flag-PRMT5/6His-MeP50 was eluted with 300 mM Imidazole in the same buffer. The purity of recovered protein was 87%. Reference: Wasilko, D. J. and S. E. Lee: “TIPS: titerless infected-cells preservation and scale-up” Bioprocess J., 5 (2006), pp. 29-32.
General Procedure for PRMT5/MEP50 Enzyme Assays on Peptide Substrates.
The assays were all performed in a buffer consisting of 20 mM Bicine (pH=7.6), 1 mM TCEP, 0.005% BSG, and 0.002% Tween20, prepared on the day of use. Compounds in 100% DMSO (1 ul) were spotted into a polypropylene 384-well V-bottom plates (Greiner) using a Platemate Plus outfitted with a 384-channel head (Thermo Scientific). DMSO (1 ul) was added to Columns 11, 12, 23, 24, rows A-H for the maximum signal control and 1 ul of SAH, a known product and inhibitor of PRMT5/MEP50, was added to columns 11, 12, 23, 24, rows I-P for the minimum signal control. A cocktail (40 ul) containing the PRMT5/MEP50 enzyme and the peptide was added by Multidrop Combi (Thermo-Fisher). The compounds were allowed to incubate with PRMT5/MEP50 for 30 min at 25 degrees Celsius, then a cocktail (10 ul) containing ^3H-SAM was added to initiate the reaction (final volume=51 ul). The final concentrations of the components were as follows: PRMT5/MEP50 was 4 nM, ^3H-SAM was 75 nM, peptide was 40 nM, SAH in the minimum signal control wells was 100 uM, and the DMSO concentration was 1%. The assays were stopped by the addition of non-radioactive SAM (10 ul) to a final concentration of 600 uM, which dilutes the ^3H-SAM to a level where its incorporation into the peptide substrate is no longer detectable. 50 ul of the reaction in the 384-well polypropylene plate was then transferred to a 384-well Flashplate and the biotinylated peptides were allowed to bind to the streptavidin surface for at least 1 hour before being washed three times with 0.1% Tween20 in a Biotek ELx405 plate washer. […]

Z-138 cell line = experiment: Z-138 Proliferation Assay (Cell Titer Glo); assay type: cell-based; conditions: Homo sapiens, 120 h; Z-138 cells, 5 days incubation, ATP (Cell Titer Glo)
Text: Z-138 Proliferation Assay
Z-138 suspension cells were purchased from ATCC (American Type Culture Collection, Manassas, Va.). RPMI/Glutamax medium, penicillin-streptomycin, heat inactivated fetal bovine serum were purchased from Life Technologies, Grand Island, N.Y., USA. V-bottom polypropylene 384-well plates were purchased from Greiner Bio-One, Monroe, N.C., USA. Cell culture 384-well white opaque plates were purchased from Perkin Elmer, Waltham, Mass., USA. Cell-Titer Glo® was purchased from Promega Corporation, Madison, Wis., USA. SpectraMax M5 plate reader was purchased from Molecular Devices LLC, Sunnyvale, Calif., USA.
Z-138 suspension cells were maintained in growth medium (RPMI 1640 supplemented with 10% v/v heat inactivated fetal bovine serum and cultured at 37° C. under 5% CO2. Under assay conditions, cells were incubated in assay medium (RPMI 1640 supplemented with 10% v/v heat inactivated fetal bovine serum and 100 units/mL penicillin-streptomycin) at 37° C. under 5% CO2.
For the assessment of the effect of compounds on the proliferation of the Z-138 cell line, exponentially growing cells were plated in 384-well white opaque plates at a density of 10,000 cells/ml in a final volume of 50 μl of assay medium. A compound source plate was prepared by performing triplicate nine-point 3-fold serial dilutions in DMSO, beginning at 10 mM (final top concentration of compound in the assay was 20 μM and the DMSO was 0.2%). A 100 nL aliquot from the compound stock plate was added to its respective well in the cell plate. […] After addition of compounds, assay plates were incubated for 5 days at 37° C., 5% CO2, relative humidity >90%.
Cell viability was measured by quantitation of ATP present in the cell cultures, adding 35 μl of Cell Titer Glo® reagent to the cell plates. Luminescence was read in the SpectraMax M5 microplate reader. The concentration of compound inhibiting cell viability by 50% was determined using a 4-parametric fit of the normalized dose response curves.

T1 sequence (O14744 with tags, fused parts or gaps): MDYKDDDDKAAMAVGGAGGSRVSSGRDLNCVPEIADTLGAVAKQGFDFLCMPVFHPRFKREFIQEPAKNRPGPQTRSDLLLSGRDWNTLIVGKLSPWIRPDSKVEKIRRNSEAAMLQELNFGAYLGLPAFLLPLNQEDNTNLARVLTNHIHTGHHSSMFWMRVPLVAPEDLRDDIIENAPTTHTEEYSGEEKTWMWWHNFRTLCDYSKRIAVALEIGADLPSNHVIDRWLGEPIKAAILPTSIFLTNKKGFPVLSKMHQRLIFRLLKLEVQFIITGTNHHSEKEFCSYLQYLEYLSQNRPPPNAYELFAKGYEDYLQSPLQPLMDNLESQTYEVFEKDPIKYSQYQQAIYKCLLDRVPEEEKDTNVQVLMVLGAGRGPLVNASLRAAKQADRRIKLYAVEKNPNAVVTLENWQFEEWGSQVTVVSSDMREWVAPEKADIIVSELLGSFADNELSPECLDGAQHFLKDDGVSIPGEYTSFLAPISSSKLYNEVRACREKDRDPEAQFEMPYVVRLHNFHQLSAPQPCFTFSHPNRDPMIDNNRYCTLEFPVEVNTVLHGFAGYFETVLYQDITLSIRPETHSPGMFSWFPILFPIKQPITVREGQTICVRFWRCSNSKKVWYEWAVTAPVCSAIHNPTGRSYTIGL
T1 sequence (Q9BQA1 with tags, fused parts or gaps partner limits assumed): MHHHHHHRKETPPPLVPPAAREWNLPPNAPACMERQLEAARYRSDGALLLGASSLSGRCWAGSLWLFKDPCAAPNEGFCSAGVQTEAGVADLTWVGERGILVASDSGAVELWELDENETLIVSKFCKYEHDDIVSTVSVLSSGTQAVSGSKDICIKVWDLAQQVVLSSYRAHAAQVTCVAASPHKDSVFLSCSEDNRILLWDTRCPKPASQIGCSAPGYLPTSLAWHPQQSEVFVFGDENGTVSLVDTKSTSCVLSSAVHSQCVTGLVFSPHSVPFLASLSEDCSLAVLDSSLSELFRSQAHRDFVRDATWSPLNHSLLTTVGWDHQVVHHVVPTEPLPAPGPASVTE

Row | SMILES | IC50 (PRMT5/MEP50) [µM] | EC50 (Z-138 cell line) [µM]
1 | CC(=O)N1CCC(Nc2cc(C(=O)NC[C@H](O)CN3CCc4sc(C)c(C)c4C3)ccn2)CC1 [Compound 1-15, (S)-2-((1-acetylpiperidin-4-yl)amino)-N-(3-(2,3-dimethyl-6,7-dihydrothieno[3,2-c]pyridin-5(4H)-yl)-2-hydroxypropyl)isonicotinamide] | < 0.1 | –
2 | OC(COc1ccccc1)CN1CCc2[nH]nc(-c3ccccc3)c2C1 (stereo not shown) [Compound 3-32] | > 50 | –
3 | CC(=O)N1CCC(Nc2cc(C(=O)NC[C@H](O)CN3CCc4cn(C)nc4C3)ncn2)CC1 [Compound 3-59] | > 10 | –
4 | CC(=O)N1CCC(Nc2cc(C(=O)NC[C@H](O)CN3CCc4sc(C)c(C)c4C3)ncn2)CC1 [Compound 1-39] | < 0.1 | –
5 | Cn1cc2c(n1)CCN(C[C@@H](O)COc1cccc(-c3ccc4ncn(C)c4c3)c1)C2 [Compound 3-1] | > 50 | –
6 | CC(=O)N1CCC(Nc2cc(C(=O)NC[C@H](O)CN3CCc4c(C)csc4C3)ncn2)CC1 [Compound 1-10, (S)-6-((1-acetylpiperidin-4-yl)amino)-N-(2-hydroxy-3-(3-methyl-4,5-dihydrothieno[2,3-c]pyridin-6(7H)-yl)propyl)pyrimidine-4-carboxamide] | < 0.1 | –
7 | OC(COc1cccc(CNC2CCCC2)c1)CN1CCc2[nH]cnc2C1 (stereo not shown) [Compound 3-7] | > 50 | –
8 | Cn1cnc2c1CCN(C[C@@H](O)COc1cccc(CNC3CCCC3)c1)C2 [Compound 3-3] | > 50 | –
9 | CC(=O)N1CC(Nc2cc(C(=O)NC[C@H](O)CN3CCc4scnc4C3)ncn2)C1 [Compound 1-25] | > 10 | –
10 | Cn1cc2c(n1)CCN(C[C@H](O)COc1cccc(-c3ccc4ncn(C)c4c3)c1)C2 [Compound 3-18] | > 50 | –
11 | CC(=O)N1CCC(Nc2cc(C(=O)NC[C@H](O)CN3CCc4cn(C)nc4C3)ccn2)CC1 [Compound 3-55] | 0.101 to 1 | –
12 | CC(=O)N1CC(Nc2cc(C(=O)NC[C@H](O)CN3CCc4sc(C)c(C)c4C3)ncn2)C1 [Compound 1-31] | < 0.1 | –
13 | Cn1cc2c(n1)CN(C[C@@H](O)CNC(=O)c1cc(NC3COC3)ncn1)CC2 [Compound 3-42] | > 10 | –
14 | CC(=O)N1CC(Nc2cc(C(=O)NC[C@H](O)CN3CCc4cnn(C)c4C3)ncn2)C1 [Compound 3-49] | 1 to 10 | –
15 | Cc1nc2c(s1)CCN(C[C@@H](O)CNC(=O)c1cc(NC3COC3)ncn1)C2 [Compound 1-22] | > 10 | –
16 | CC(=O)N1CCC(Nc2cc(C(=O)NC[C@H](O)CN3CCc4cnn(C)c4C3)ncn2)CC1 [Compound 3-60] | 0.101 to 1 | –
17 | OC(COc1cccc(CNC2CCCC2)c1)CN1CCc2ccncc2C1 (stereo not shown) [Compound 2-2, 1-(3-((cyclopentylamino)methyl)phenoxy)-3-(3,4-dihydro-2,7-naphthyridin-2(1H)-yl)propan-2-ol] | > 50 | –
18 | Cc1sc2c(c1C)CN(C[C@@H](O)CNC(=O)c1cc(NC3COC3)ncn1)CC2 [Compound 1-24] | < 0.1 | –
19 | Cn1ncc2c1CCN(CC(O)COc1cccc(CNC3CCCC3)c1)C2 (stereo not shown) [Compound 3-8] | > 50 | –
20 | Cn1cnc2ccc(-c3cccc(OCC(O)CN4CCc5ncccc5C4)c3)cc21 (stereo not shown) [Compound 2-4, 1-(7,8-dihydro-1,6-naphthyridin-6(5H)-yl)-3-(3-(1-methyl-1H-benzo[d]imidazol-6-yl)phenoxy)propan-2-ol] | 10 to 50 | –
21 | Cn1cnc2c1CN(C[C@H](O)COc1cccc(CNC3CCCC3)c1)CC2 [Compound 3-16] | > 50 | –
22 | CC(=O)N1CCC(Nc2cc(C(=O)NC[C@H](O)CN3CCc4nc(C)sc4C3)ccn2)CC1 [Compound 1-9] | 1 to 10 | –

Second part, led by results:

Row | IC50 (PRMT5/MEP50) [µM] | SMILES | EC50 (Z-138 cell line) [µM]
23 | 1 to 10 | O=C(NC[C@H](O)CN1CCc2cccnc2C1)c1cc(NC2COC2)ncn1 [Compound 2-10] | 1 to 10
24 | 1 to 10 | Cn1ncc2c1CN(C[C@@H](O)CNC(=O)c1cc(NC3COC3)ncn1)CC2 [Compound 3-43] | –
25 | 1 to 10 | CC(=O)N1CCC(Nc2cc(C(=O)NC[C@H](O)CN3CCc4[nH]ncc4C3)ncn2)CC1 [Compound 3-20] | –
26 | > 50 | Cn1cnc2c1CN(C[C@@H](O)COc1cccc(CNC3CCCC3)c1)CC2 [Compound 3-15] | –
27 | > 50 | Cn1ncc2c1CCN(C[C@H](O)COc1cccc(-c3ccc4ncn(C)c4c3)c1)C2 [Compound 3-5] | –
28 | > 50 | Cn1cnc2c1CCN(C[C@H](O)COc1cccc(CNC3CCCC3)c1)C2 [Compound 3-13] | –
29 | 10 to 50 | Cn1cnc2ccc(-c3cccc(OCC(O)CN4CCc5[nH]nc(-c6ccccc6)c5C4)c3)cc21 (stereo not shown) [Compound 3-6, 1-(3-(1-methyl-1H-benzo[d]imidazol-6-yl)phenoxy)-3-(3-phenyl-6,7-dihydro-1H-pyrazolo[4,3-c]pyridin-5(4H)-yl)propan-2-ol] | –
30 | > 10 | CC(=O)N1CC(Nc2cc(C(=O)NC[C@H](O)CN3CCc4cn(C)nc4C3)ncn2)C1 [Compound 3-48] | –
31 | > 50 | OC(COc1cccc(CNC2CCCC2)c1)CN1CCc2cnccc2C1 (stereo not shown) [Compound 2-3] | –
32 | 0.101 to 1 | CC(=O)N1CCC(Nc2cc(C(=O)NC[C@H](O)CN3CCc4cnn(C)c4C3)ccn2)CC1 [Compound 3-37, (S)-2-((1-acetylpiperidin-4-yl)amino)-N-(2-hydroxy-3-(1-methyl-4,5-dihydro-1H-pyrazolo[3,4-c]pyridin-6(7H)-yl)propyl)isonicotinamide] | –
33 | 0.101 to 1 | CC(=O)N1CC(Nc2cc(C(=O)NC[C@H](O)CN3CCc4c(C)csc4C3)ncn2)C1 [Compound 1-26] | –
34 | > 50 | Cn1cc2c(n1)CCN(CC(O)COc1cccc(CNC3CCCC3)c1)C2 (stereo not shown) [Compound 3-2] | –
35 | > 50 | Cn1ncc2c1CCN(C[C@@H](O)COc1cccc(-c3ccc4ncn(C)c4c3)c1)C2 [Compound 3-4] | –
36 | > 10 | O=C(NC[C@H](O)CN1CCc2scnc2C1)c1cc(NC2COC2)ncn1 [Compound 1-21] | –
